Test results: patent US20090011057A1, “FORMULATIONS AND METHODS FOR INHIBITING ANAEROBES, GRAM NEGATIVE BACTERIA, PROTOZOA AND OTHER MICROBIAL GROWTH WITH MORINDA CITRIFOLIA L. ENHANCED FORMULATIONS” (priority 2007, published 2009)
Converted amounts (≈) assume the structure as drawn.

Columns and labels:
Type in all cases: cell-based
[1] = system: Actinomyces viscosus (ATCC 15987); experiment: Anti-infective in vitro assay, growth inhibition (turbidity); conditions: ATCC15987, read-out: Reference Compound, Concurrent (MIC)
Protocol: (§1) In a preliminary investigations the potential usage of the M. citrifolia Noni fruit juice on bacterial species and various protozoan species, which are known to cause economic downfalls in humans and livestock industries were assessed.
(§2) Method employed in this study have been adapted from the scientific literature to maximize reliability and reproducibility. Reference standards were run as an integral part of each assay to ensure the validity of the results obtained. Materials utilized are described in the following charts.

[2] = system: Trichomonas foetus (Br. M. Strain); experiment: Anti-infective in vitro assay, inhibition of growth examined; conditions: Tritrichomonas foetus, read-out: Reference Compound, Concurrent (MIC)
Protocol: as §1, §2

[3] = system: Salmonella typhimurium (ATCC 13311); experiment: Anti-infective in vitro assay, growth inhibition (turbidity); conditions: Salmonella typhimuium (ATCC 13311)
Protocol: as §1, §2

Work on `CC1(C)S[C@@H]2[C@H](NC(=O)[C@H](N)c3ccccc3)C(=O)N2[C@H]1C(=O)O` [Ampicillin] yielded an MIC [1] of 0.03 µg/mL (≈ 0.0859 µM).
`Cc1ncc([N+](=O)[O-])n1CCO` [Metronidazole] showed an MIC [2] of 3 µg/mL (≈ 17.5 µM).
With Gentamicin the MIC [3] was 0.3 µg/mL.
